Data set [1] deals with melanoma metastasis. Particulars: mice; literature reports; cited from earlier work.
The test system of data set [2] is SOCE in B16N murine melanoma cells. Nature of the data set: SOCE measurement (Fura2, Tg then Ca2+ re-addition) in B16N cells. The note with it: B16N control, UV2, UV5, O1C44; 2 μM IA65. Type of data set: cell-based. The procedure: (§1) UV Exposure—Cells were plated on glass coverslips for 24 hours before changing to PBS. Lids were replaced with a thin layer of taut plastic wrap before irradiating with a broadband UV spectrum containing 35% UVA and 65% UVB (with peak emission at 313 nm in the UVB range (De Fabo, E. C., et al, 2004, Cancer Research, 64:6372-6376)). Cells received a total UV dose of 175 J/m^2 over 90 seconds at a rate of 1.94 W/m^2. Approximately 80% of the melanoma cells survive this exposure. Cells were passaged 1:10 every 3 days and cultured under growth optimal conditions for the indicated time period (see Cell Culture below) before subsequent experimentation.
(§2) SOCE Measurement—Cells grown on glass coverslips were incubated in a cation-safe buffer (107 mM NaCl, 7.2 mM KCl, 1.2 mM MgCl2, 11.5 mM Glucose, 20 mM HEPES-NaOH, 1 mM CaCl2, pH 7.2) and loaded with Fura2-acetoxymethylester (Fura2-AM; 2 μM) for 30 min at 24° C. as previously described (Go, C. K., et al, 2019, Science Signaling, 12; Hooper, R., et al., 2015, Molecular and Cellular Biology, 35:2790-2798). Cells were washed and allowed to de-esterify for a minimum of 30 min at 24° C. […] Ca^2+ measurements were taken using a Leica DMI 6000B fluorescence microscope controlled by Slidebook software (Intelligent Imaging Innovations, Denver, CO). […]

The subject of data set [3] is SOCE in WM983 human melanoma cells. Nature of the data set: SOCE measurement (Fura2, Tg then Ca2+ re-addition) in WM983 cells. Type of data set: cell-based. The procedure:
as §1
(§3) SOCE Measurement—Cells grown on glass coverslips were incubated in a cation-safe buffer (107 mM NaCl, 7.2 mM KCl, 1.2 mM MgCl2, 11.5 mM Glucose, 20 mM HEPES-NaOH, 1 mM CaCl2, pH 7.2) and loaded with Fura2-acetoxymethylester (Fura2-AM; 2 μM) for 30 min at 24° C. as previously described (Go, C. K., et al, 2019, Science Signaling, 12; Hooper, R., et al., 2015, Molecular and Cellular Biology, 35:2790-2798). Cells were washed and allowed to de-esterify for a minimum of 30 min at 24° C. Following de-esterification, cells were treated with 2 μM Thapsigargin (SERCA inhibitor) for 10 minutes prior to imaging. Ca^2+ measurements were taken using a Leica DMI 6000B fluorescence microscope controlled by Slidebook software (Intelligent Imaging Innovations, Denver, CO). Fluorescence emission at 505 nm was monitored in response to excitation at alternating 340 nm and 380 nm wavelengths at a frequency of 0.67 Hz; intracellular Ca^2+ measurements are shown at 340/380 nm ratios obtained from groups (2-45 for patient samples, 35-45 for established cell lines) of single cells.

The test system of data set [4] is SOCE in patient melanoma surgical explant cells. Briefly: SOCE measurement in cells from patient surgical explants. In kind it is cell-based, human. Particulars: patient explant cells treated with drug in presence of Tg, 15 minutes. The procedure: as §3
Isolation of Cells from Patient Surgical Explants—Tissue was incubated in DMEM containing Liberase® TL (Roche Applied Science; 37° C., 30 min). Following incubation, tissue was cut using a sharp razor and dissociated through 50 μM Medicon screens (Becton Dickinson Biosciences, San Jose, CA; 2 min). […]

The test system of data set [5] is B16N murine melanoma cells. Nature of the data set: Matrigel transwell invasion assay, B16N cells. Set-up: invasion (Matrigel transwell): dose or concentration left out as unconfirmed. In kind it is cell-based. As to the method: (§4) Transwell Migration Assays—Transwell migration assays were performed as previously described (Hooper, R., et al., 2015, Molecular & Cellular Biology, 35:2790-2798). Briefly, Matrigel® transwell chambers (Corning, Bedford, MA) were hydrated with serum-free OptiMEM for 2 hours (37° C., 5% CO2) prior to the addition of 2,500 cells/well. Growth optimal media was placed on the bottom of the chamber prior to incubation (20 hours; 37° C., 5% CO2). After incubation, media was removed, and edges were cleaned before methanol fixation and staining with crystal violet (0.5%, 2 min). Images were taken by EVOS cell imager and quantified on ImageJ.

For data set [6], the system named is WM983 human melanoma cells. Briefly: Matrigel transwell invasion assay, WM983 cells. In kind it is cell-based. Set-up: invasion (Matrigel transwell): dose or concentration left out as unconfirmed. As to the method: as §4
Data set [7] has as its system patient melanoma surgical explant cells. Nature of the data set: Matrigel transwell invasion assay, patient explant cells. Particulars: TAK475 10 μM, compactin 2 μM, IA65 2 μM or OSMI1 40 μM; 20 hours. In kind it is cell-based, human. The procedure: as §4
Isolation of Cells from Patient Surgical Explants—Tissue was incubated in DMEM containing Liberase® TL (Roche Applied Science; 37° C., 30 min). Following incubation, tissue was cut using a sharp razor and dissociated through 50 μM Medicon screens (Becton Dickinson Biosciences, San Jose, CA; 2 min). Tissue samples were resuspended in DFD media (DMEM, 20% FBS; 500 ug/ml DNAse I, Sigma, St. Louis, MO) and passed through an 18-gauge syringe to break up clumps of cells before filtration (70 μm, Corning, Glendale, AZ, centrifugation and resuspension in DMEM (2% FBS; 1% Gentamycin) for 3 days before use.

Data set [8] has as its system WM983 human melanoma cells. Briefly: Scratch (wound) migration assay, WM983 cells. In kind it is cell-based. The note with it: 2 μM IA65, 0-, 10-, 20-hour. The procedure:
Migration Assay—Cells were plated on glass coverslips (Ibidi, Fitchburg, WI) overnight to form a complete monolayer before “wounding” with a p20 pipette tip. Coverslips were placed in an incubation chamber (37° C.; 5% CO2) and monitored by confocal microscopy (Leica SP8 Laser Scanning Microscope). Z-stack brightfield images were obtained every 20 minutes for 20 hours; the % of the wound that was refilled over time was calculated using ImageJ.

For data set [9], the system named is melanoma cells (WM983, B16N). Nature of the data set: Viability assay (Trypan Blue). Type of data set: cell-based. The note with it: 2 μM IA65 overnight, control, UV2, UV5 cells. The procedure:
Viability Assays—500,000 cells were plated in 24 well plates overnight in the absence or presence of 2 μM IA65. Cells were then trypsinized with 0.25% Trypsin-EDTA for 10 minutes at 37° C. Following, cells were treated with 0.4% Trypan Blue and placed in a Bio-Rad slidereader and the number of stained vs. unstained cells compared.

The subject of data set [10] is SOCE in UACC257 human melanoma cells. Briefly: SOCE measurement (Fura2, Tg then Ca2+ re-addition) in UACC257 cells. In kind it is cell-based. Particulars: non-SOCE suppressed UACC257 UV5 cells; overnight treatment. As to the method:
as §1, §2

Molecules are shown by their SMILES.

Turning to `O=C(O)Cc1cccc(OCCCN(Cc2cccc(C(F)(F)F)c2Cl)CC(c2ccccc2)c2ccccc2)c1` [GW3965], in data set [1], the melanoma metastasis entry is listed as “suppressed”.

In the case of `O=C(O)c1ccc(Nc2nc(C(F)(F)F)c(-c3ccccc3)s2)cc1` [IA65, 4-((5-Phenyl-4-(trifluoromethyl)thiazol-2-yl)amino)benzoic acid], the “SOCE (reversal of SOCE suppression)” value in [2] is “reversal of SOCE suppression”. Besides, the “UV-induced SOCE suppression” value in data set [3] (UV2 and UV5 WM983 cells, 2 μM IA65, 15 minutes) is recorded as “strikingly reversed UV-induced SOCE suppression”. For the same compound, the SOCE result in data set [3] (untreated (non-irradiated) WM983 cells, 2 μM IA65, 15 minutes) is reported as “no effect”. In addition, the “change in SOCE in patient samples” value in [4] is “No significant effect”. Besides, the “invasion through Matrigel transwell” value in data set [5] (B16N control, UV2, UV5, O1C44, 2 μM IA65) was “inhibition of invasiveness”. For the same compound, the “invasion through Matrigel in a transwell assay” value in data set [6] (WM983 control, UV2, UV5, 2 μM IA65, 20 hours) was “failed to invade”. Besides, the “invasion in vitro of patient cells” value in [7] is “diminished invasion”. For the same compound, in data set [8], the “UV-induced enhanced cell migration (scratch)” value is on record as “did not have UV-induced enhanced cell migration”. In addition, in data set [9], the cell viability result was “no effect”.

In the case of `COc1ccccc1[C@@H](NS(=O)(=O)c1ccc2[nH]c(=O)ccc2c1)C(=O)N(Cc1ccco1)Cc1cccs1` [OSMI1], the “invasion (Matrigel transwell)” value is “reduced invasion” in data set [5] (SOCE-suppressed B16N cells, siRNA targeting OGT) and “reduced invasion” in data set [6] (SOCE-suppressed WM983 cells, siRNA targeting OGT). In data set [7], the “invasion in vitro of patient cells” value is recorded as “diminished invasion”.

For `O=S(=O)(c1ccccc1)N(CC(F)(F)F)c1ccc(C(O)(C(F)(F)F)C(F)(F)F)cc1` [T0901317], the melanoma metastasis result in [1] is on record as “suppressed”.

On to `COc1cccc([C@H]2O[C@H](CC(=O)N3CCC(CC(=O)O)CC3)C(=O)N(CC(C)(C)COC(C)=O)c3ccc(Cl)cc32)c1OC` [TAK475], for which the SOCE result in data set [3] (UV5 WM983 cells, 24 hr treatment) is reported as “markedly enhanced”; in [3] (untreated WM983 cells, cholesterol synthesis inhibitor overnight), “neither agent significantly affected SOCE”; in [10] it was “no change”. Besides, the “change in SOCE in patient samples” value in [4] is reported as “significantly enhanced SOCE”. For the same compound, in data set [6] (UV5 WM983 cells, transwell, 20 hours), the “UV-induced increases in melanoma invasiveness through Matrigel” value is reported as “abrogated UV-induced increases in melanoma invasiveness”. The “invasiveness through Matrigel” value in data set [6] (untreated (control) WM983 cells) is given as “no effect on invasiveness”. Further, the “invasion in vitro of patient cells” value in data set [7] was “diminished invasion”.

The values are drawn from US20240058310A1, “METHODS OF TREATING DISEASES AND DISORDERS ASSOCIATED WITH CALCIUM ION SIGNALING” (Temple University-Of the Commonwealth System of Higher …, priority 2022, published 2024).
